Source: ChEMBL document CHEMBL1154948, “Carbonic anhydrase inhibitors. Inhibition of transmembrane isoforms IX, XII, and XIV with less investigated anions including trithiocarbonate and dithiocarbamate” (Bioorg Med Chem Lett, 2010)

What was measured:
[1] = biological target: Carbonic anhydrase 9 (Homo sapiens) (UniProt Q16790); assay: Inhibition of human recombinant CA9 by stopped flow CO2 hydration assay
[2] = biological target: Carbonic anhydrase 12 (Homo sapiens) (UniProt O43570)
[3] = biological target: Carbonic anhydrase 14 (Homo sapiens) (UniProt Q9ULX7)
Chain of Carbonic anhydrase 14 (Homo sapiens) (Q9ULX7 whole entry): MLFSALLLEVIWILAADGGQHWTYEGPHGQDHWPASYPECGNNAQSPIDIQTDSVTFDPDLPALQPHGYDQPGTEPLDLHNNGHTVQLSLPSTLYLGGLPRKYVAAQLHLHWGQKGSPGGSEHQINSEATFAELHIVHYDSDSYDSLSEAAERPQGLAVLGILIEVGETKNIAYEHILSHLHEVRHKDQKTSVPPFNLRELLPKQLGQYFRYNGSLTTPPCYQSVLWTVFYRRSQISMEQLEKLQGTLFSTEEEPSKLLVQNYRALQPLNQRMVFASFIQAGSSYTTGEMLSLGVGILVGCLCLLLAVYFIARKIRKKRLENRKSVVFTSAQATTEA
Description: Inhibition of human recombinant CA14 by stopped flow CO2 hydration assay

Chain of Carbonic anhydrase 12 (Homo sapiens) (O43570 whole entry): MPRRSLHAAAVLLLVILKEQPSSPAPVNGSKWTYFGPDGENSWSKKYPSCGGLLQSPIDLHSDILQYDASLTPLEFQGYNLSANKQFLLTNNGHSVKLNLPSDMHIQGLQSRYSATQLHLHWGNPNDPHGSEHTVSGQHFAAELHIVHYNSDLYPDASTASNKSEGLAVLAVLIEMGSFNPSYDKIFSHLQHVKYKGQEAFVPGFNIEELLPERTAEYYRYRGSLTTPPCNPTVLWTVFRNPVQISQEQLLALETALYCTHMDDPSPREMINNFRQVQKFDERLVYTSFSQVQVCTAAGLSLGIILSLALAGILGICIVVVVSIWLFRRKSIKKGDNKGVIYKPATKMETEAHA

Row | Compound | Kinact [1] [mM] | Kinact [2] [mM] | Kinact [3] [mM]
1 | CCN(CC)C(=S)S | 0.0014 | 0.0011 | 0.001
2 | SODIUM STANNATE | – | 1.02 | –
3 | O=P(O)(O)OP(=O)(O)O | 46.3 | 63.9 | 0.76
4 | SODIUM DIOXIDOTRIOXOOSMIUM | 184 | 130 | 72.5
5 | O=[Se](=O)(O)O | 183 | 138 | 49.6
